Key:
[1] = Nonspecific brain tissue binding (free fraction); format: in vitro ADME, mouse
Description: (§1) Example 3 of U.S. Pat. No. 9,789,131, which is incorporated herein by reference, describes assays for determining the plasma and brain free fraction of certain compounds such as I-1. Compounds described herein may be evaluated using such assays or similar variants thereof.

[2] = Plasma protein binding (free fraction); format: in vitro ADME, mouse
Description: as §1

[3] = target: T1, A3 receptor in the mouse (Mus musculus, UniProt Q61618); experiment: Affinity at the mouse A3 receptor; format: binding
T1 sequence (Q61618 1-319): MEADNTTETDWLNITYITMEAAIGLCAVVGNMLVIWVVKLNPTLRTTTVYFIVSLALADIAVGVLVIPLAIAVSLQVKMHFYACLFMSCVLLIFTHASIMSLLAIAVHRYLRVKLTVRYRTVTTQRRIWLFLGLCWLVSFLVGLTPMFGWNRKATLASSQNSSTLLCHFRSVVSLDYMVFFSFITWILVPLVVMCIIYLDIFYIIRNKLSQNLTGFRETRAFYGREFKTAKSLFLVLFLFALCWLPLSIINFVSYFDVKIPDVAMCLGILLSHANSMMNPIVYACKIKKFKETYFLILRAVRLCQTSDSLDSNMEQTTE
Description: Similar competition binding assays may be conducted using HEK293 cell membranes expressing mARs using [^125I]I-AB-MECA to label A1 or A3ARs and [3H]CGS21680 to label A2AARs. IC50 values were converted to Ki values using known methods. Nonspecific binding was determined in the presence of 100 μM NECA.

CSc1nc(N)c2ncn([C@H]3[C@H](O)[C@H](O)[C@]4(CO)C[C@H]34)c2n1 [Compound I-1, (1R,2R,3S,4R,5S)-4-(6-Amino-2-(methylthio)-9H-purin-9-yl)-1-(hydroxymethyl)bicyclo[3.1.0]hexane-2,3-diol]
free (unbound) fraction in brain ([1]; brain tissue): 0.13 | fraction available to interact with the A3 receptor, relative to Cl-IB-IMECA ([1]; mouse models, from unbound fractions): at least 1000 fold | free (unbound) fraction in plasma [2]: 0.74 | difference in affinity of I-1 and Cl-IB-MECA at mouse A3 receptor ([3]; I-1 versus Cl-IB-MECA): approximately 25,000 fold | Ki ([3]; mouse A3 receptor, read-out: affinity as agonist of the A3 receptor in the mouse): 4.9 µM
